Measured values taken from patent publication US11266626B2, “Reduction of ER-MAM-localized APP-C99 and methods of treating alzheimer's disease” (THE TRUSTEES OF COLUMBIA UNIVERSITY IN THE CITY OF NEW YORK, priority 2015, dated 2022).
Entries after “also recorded” stand apart in the source; their conditions may differ.

What was measured:
ACAT1 = experiment: ACAT activity assay (conversion of 3H-cholesterol to cholesteryl esters); assay type: cell-based, mouse; conditions: PS-DKO cells; 100 nM BI, 12-16 h
Procedure: To measure cholesterol uptake in vivo, cultured cells were incubated in serum-free medium for 2 h to remove all exogenous lipids. After that, 2.5 μCi/ml of 3H-cholesterol was added to FBS-free DMEM containing 2% FAF-BSA, allowed to equilibrate for at least 30 min at 37° C., and the radiolabeled medium was added to the cells for the indicated periods of time. Cells were then washed and collected in DPBS, removing a small aliquot for protein quantification. Lipids were extracted in 3 volumes of chloroform:methanol (2:1 v/v). After vortexing and centrifugation at 8000×g for 5 min, the organic phase was blown to dryness under nitrogen. […] Iodine-stained bands corresponding to cholesterol and cholesteryl esters were scraped and counted.
(§1) To measure cholesterol esterification in vivo, cultured cells were incubated in serum-free medium for 2 h to remove all exogenous lipids. […] Cells were then washed and collected in DPBS, removing a small aliquot for protein quantification. […] Iodine-stained bands corresponding to cholesterol and cholesteryl esters were scraped and counted.
as §1

[1] = tested on: acid (aSMase) and neutral (nSMase) sphingomyelinases; experiment: Analysis of sphingomyelinase activity; assay type: cell-based, mouse; conditions: PS-DKO MEFs; BI 100 nM; Aβ40:Aβ42 10:1, 6 ng/ml total
Procedure: One hundred μg of protein were assayed in 100 mM of the appropriate buffer (Tris/glycine for pH 7.0-9.0 and sodium acetate for pH 4.0-5.0), 1.55 mM Triton X-100, 0.025% BSA, 1 mM MgCl2, and 400 μM bovine brain sphingomyelin spiked with 22000 dpm of [3H]-bovine sphingomyelin ([…]). Reactions were carried out in borosilicate glass culture tubes at 37° C., overnight, followed by quenching with 1.2 ml of ice-cold 10% trichloroacetic acid, incubation at 4° C. for 30 min, and centrifugation at 2000 rpm at 4° C. for 20 min. One ml of supernatant was transferred to clean tubes, 1 ml of ether was added, the mixture vortexed, and centrifuged at 2000 rpm for 5 min. Eight hundred μl of the bottom phase was transferred to scintillation vials, 5 ml of Scintiverse BD (Fisher Scientific, Fair Lawn, N.J.) was added, and samples were counted. […]
Reactions were carried out in borosilicate glass culture tubes at 37° C., overnight, followed by quenching with 1.2 ml of ice-cold 10% trichloroacetic acid, incubation at 4° C. for 30 min, and centrifugation at 2000 rpm at 4° C. for 20 min. […] Eight hundred μl of the bottom phase was transferred to scintillation vials, 5 ml of Scintiverse BD (Fisher Scientific, Fair Lawn, N.J.) was added, and samples were counted. […]

SH-SY5Y cells = experiment: Mitochondrial content and biogenesis (VDAC western blot; qRT-PCR); assay type: cell-based, human

| Compound | incorporation of radiolabeled cholesterol into cholesteryl esters (ACAT1 activity) (ACAT1) | acid (aSMase) and neutral (nSMase) sphingomyelinase activity / sphingolipid turnover [1] | mitochondrial content or biogenesis (SH-SY5Y cells) |
| --- | --- | --- | --- |
| C[C@@H](NC(=O)c1cc(C(=O)N[C@@H](Cc2ccccc2)[C@H](O)CNC2CC2)cc(N(C)S(C)(=O)=O)c1)c1ccccc1 [BI, β-secretase inhibitor IV] | reduced significantly the incorporation of radiolabeled cholesterol into cholesterol esters; also recorded: reduced the incorporation of cholesterol into cholesteryl esters | reduced significantly; also recorded: attenuation of sphingolipid turnover; also recorded: attenuation of sphingolipid synthesis and hydrolysis by sphingomyelinases |  |
| C[C@H](NC(=O)Cc1cc(F)cc(F)c1)C(=O)N[C@H](C(=O)OC(C)(C)C)c1ccccc1 [DAPT] |  |  | without altering mitochondrial content or biogenesis |
